Assay results reported in publication PMC7504387, “Antimicrobial and Amyloidogenic Activity of Peptides Synthesized on the Basis of the Ribosomal S1 Protein from Thermus Thermophilus” (International Journal of Molecular Sciences, 2020).
≈ marks a conversion by molar mass, not a printed value. Entries after “also recorded” stand apart in the source; their conditions may differ. Where a SMILES comes first, the peptide text is derived from it. Where no end group is shown, it is not given here. [ ]: non-standard residue; d: D form. Sar = CNCC(=O)O

How the values were obtained:
[1] = tested on: T. thermophilus cell culture; format: cell-based; conditions: for minimal inhibitory concentration (MIC): optical absorption at 600 nm after 24 h incubation, 5 repeats for R23I, 2 for R23T and V10I
Description: UV-Vis spectra were recorded using a spectrophotometr SF-102 (Akvilon, Moscow, Russia). At the end of the incubation, the density of the medium was estimated by spectrophotometry in a cuvette 10 mm with a total volume of 100 μL. The cuvettes were filled with the peptide water solutions and spectra were collected, using a wavelength from 600 nm. Biological activity of peptides was evaluated by their minimum concentration, which that may inhibit the growth of T. thermophilus bacteria culture. Biological activity of peptides was counted by using the following equation: (1) E=1−A (sample with peptide)/A (sample without peptide), where E is a biological activity of peptides, A is an optical absorption after 24 h incubation with and without peptide.
To construct a dose-effect curve and estimate the quantitative parameters of the curves, the statistical environment R and the drc package were used. The choice of model for describing the functional dependence was determined by several parameters: the logarithm of the maximum value of the likelihood function (logLik), the Akaike information criterion (IC), and the residual variance (Res var).
The algorithm for evaluating antimicrobial activity includes the study of this process and the dose–response relationship. The reaction of a biological object determines a quantitative assessment of the antimicrobial effect, depending not only on the concentration of the peptide, but also on the time of its action. Almost any impact begins with a certain threshold. An important final result of the experiment is the assessment of this threshold—the minimum inhibitory concentration (MIC) at which peptide influence is observed.

T. thermophilus cells = assay: Electron microscopy of intact and peptide-treated T. thermophilus cells; format: cell-based
Description: Along with the spectrophotometric method for determining the antimicrobial activity of peptides, the viability of cells was evaluated using electron microscopy. […] At the given peptide concentration, cells with a typical morphology and flagella were often found. Many protein aggregates were also observed. The absence of an antimicrobial effect with an increase in the concentration of the peptide to 1000 μg/mL, consistent with the spectrophotometry data of the antimicrobial activity of peptides (Figure 3).
(§1) The presence of amyloid fibrils in the test samples was monitored by transmission electron microscopy (TEM). End-point solutions of peptides were collected and the samples were dissolved in the same solution to 0.2 mg/mL before studying with electron microscopy. A formvar-coated copper grid 400 mesh (Electron Microscopy Sciences, Hatfield, PA, USA) was placed on a 10 μL sample. After 5 min absorption, the grids with the preparation were negatively stained for 1.5–2.0 min with 1% (weight/volume) aqueous solution of uranyl acetate. The excess of the staining agent was removed with filter paper. The preparations were analyzed using a JEM-100C (Jeol, Tokyo, Japan) transmission electron microscope at the accelerating voltage of 80 kV. Images were recorded on the Kodak electron image film (SO-163) at nominal magnification of 40,000–60,000.

[2] = Thioflavine T fluorescence assay of peptide aggregation; format: physicochemical; conditions: ThT 0.2 mM, 37 °C; for amyloids in peptide preparation according to ThT fluorescence: peptide alone; for ThT fluorescence intensity, final: peptide alone 0.2 mM, 1% DMSO, end of kinetics (time axis to 80 min)
Description: (§2) Fibrils growth was monitored by thioflavine T (ThT) (Sigma-Aldrich, St. Louis, MO, USA) fluorescence. The kinetics of aggregation of peptides was studied using the method of fluorescence spectroscopy. Each kinetics graph was plotted based on the average of several results measured at different time intervals. To facilitate dissolution, all the samples of peptides were pre-dissolved in 100% DMSO, then buffers 50 mM Tris-HCl, pH 7.5, 150 mM NaCl or 20% acetic acid pH 2.0, 150 mM NaCl were added (1% final concentration DMSO) and filtered through […] membranes to remove small aggregates. ThT is the most commonly used fluorescent dye for the following amyloid formation semi-quantitatively in vitro. Free ThT has excitation and emission maxima at ∼350 and ∼450 nm, respectively (after binding to fibrils, the excitation and emission λmax change to ∼450 and ∼482–485 nm, respectively). A stock solution of ThT was prepared at a concentration of 20 mM in 50 mM Tris-HCl, pH 7.5, 150 mM NaCl or 20% acetic acid pH 2.0, 150 mM NaCl, respectively and stored at 4 °C protected from light. The final concentration of ThT was 0.2 mM, and each peptide was 0.2 mM. ThT was present in the sample during the fibril formation reaction. Measurements of ThT fluorescence were performed on a Cary Eclipse fluorescence spectrophotometer (Varian, Mulgrave, Australia) in quartz cells 3 × 3 mm at 37 °C.

[3] = Transmission electron microscopy of peptide preparations; format: physicochemical; conditions: peptide alone
Description: as §1

[4] = tested on: ribosomal S1 protein from T. thermophilus; assay: Electron microscopy, coaggregation of peptide with S1 protein
Description: as §1

[5] = tested on: ribosomal S1 protein from T. thermophilus; assay: Thioflavine T fluorescence, coaggregation of peptide with S1 protein; conditions: S1:peptide ratios 1:1 and/or 1:5
Description: as §2

[6] = peptide:S1 protein ratio 5:1 (S1:peptide = 1:5)

CC(C)[C@H](NC(=O)CNC(=O)CN(C)C(=O)CNC(=O)CNC(=O)[C@H](CCCNC(=N)N)NC(=O)[C@H](CCCNC(=N)N)NC(=O)[C@H](CCCNC(=N)N)NC(=O)[C@H](CCC(N)=O)NC(=O)[C@H](CCCNC(=N)N)NC(=O)[C@H](CCCNC(=N)N)NC(=O)[C@H](CCCCN)NC(=O)[C@H](CCCCN)NC(=O)[C@@H](N)CCCNC(=N)N)C(=O)N[C@H](C(=O)N[C@@H](CCC(=O)O)C(=O)NCC(=O)N[C@H](C(=O)N[C@H](C(=O)N[C@H](C(=O)N[C@@H](CCC(=O)O)C(=O)N[C@H](C(=O)N[C@H](C(=O)O)[C@@H](C)O)C(C)C)C(C)C)C(C)C)[C@@H](C)O)C(C)C [R23T] (HELM PEPTIDE1{R.K.K.R.R.Q.R.R.R.G.G.[Sar].G.V.V.E.G.T.V.V.E.V.T}$$$$V2.0; N-terminus and C-terminus assumed)
minimal inhibitory concentration (MIC) ([1]; T. thermophilus culture): 500 µg/mL (≈ 193 µM)
cell morphology by electron microscopy (T. thermophilus cells; peptide 100 μg/mL): did not differ from the control
cell morphology by electron microscopy (T. thermophilus cells; peptide 500 μg/mL): cells were often damaged
amyloids in peptide preparation according to ThT fluorescence [2]: absence of R23T amyloids
fibril/aggregate formation by electron microscopy ([3]; 5 h incubation at 37 °C, 50 mM TrisHCl pH 7.5, 150 mM NaCl): did not form fibrils, but the aggregates were observed
morphology of peptide/S1 protein mixture by electron microscopy ([4]; peptide:S1 protein ratio 1:1): aggregates are observed; also recorded: aggregates of different sizes
morphology of peptide/S1 protein mixture by electron microscopy [4, 6]: aggregates of different morphology (type 1 and type 2), fibrils and thin films are formed; also recorded: both the fibrils and films were formed

NC[C@H]1O[C@H](O[C@H]2[C@H](O)[C@@H](O[C@H]3O[C@H](CO)[C@@H](O)[C@H](N)[C@H]3O)[C@H](N)C[C@@H]2N)[C@H](O)[C@@H](O)[C@@H]1O [kanamycin, reference compound]
change of optical density of T. thermophilus culture over time ([1]; 50 μg/mL in medium, OD 600 nm versus sampling time, DMSO control reached 0.8): no increase in the optical density
effectiveness E = 1 − A(sample with peptide)/A(sample without peptide) ([1]; T. thermophilus culture, OD 600 nm, 24 h, maximum observed, probably a limitation of the method): ≤ 0.8
concentration close to 50% of the inhibition of cell culture growth ([1]; T. thermophilus culture, dose-response curve, log-logistic model): ~10 µg/mL

DFGVFVNLG [D9G, amyloidogenic peptide … based on the ribosomal S1 protein from T. thermophilus]
biological activity (growth inhibition) in the range of studied concentrations ([1]; T. thermophilus culture, OD 600 nm, 24 h, single repeat): did not show biological activity

GlyGlySarGlyVTDFGVFVEI [G14I, elongated peptide GlyGlySarGly[…]]
ThT fluorescence intensity, final [2]: 80 a.u.
amyloids in peptide preparation according to ThT fluorescence [2]: presence of amyloids

GlyGlySarGlyVVEGTVVEVT (GG[Sar]GVVEGTVVEVT) [G14T, elongated peptide GlyGlySarGly…]
ThT fluorescence intensity, final [2]: 4 a.u.
amyloids in peptide preparation according to ThT fluorescence [2]: presence of amyloids
aggregate/fibril morphology according to electron microscopy ([3]; negative staining, TEM): short dense fibrils
amyloids on joint incubation with S1 protein according to ThT fluorescence [5]: presence of amyloids, which tend to disaggregate
morphology of peptide/S1 protein mixture by electron microscopy ([4]; peptide:S1 protein ratio 1:1): fibrils are not formed

VTDFGVFVEI [V10I]
minimal inhibitory concentration (MIC) ([1]; T. thermophilus culture): 1000 µg/mL

VVEGTVVEVT [V10T, unmodified amyloidogenic peptide … based on the ribosomal S1 protein from T. thermophilus]
cell morphology by electron microscopy (T. thermophilus cells; peptide 100 μg/mL): had no toxic effect
amyloids on joint incubation with S1 protein according to ThT fluorescence [5]: presence of amyloids, which tend to disaggregate
morphology of peptide/S1 protein mixture by electron microscopy ([4]; peptide:S1 protein ratio 1:1): only aggregates are present
morphology of peptide/S1 protein mixture by electron microscopy [4, 6]: both aggregates and fibrils are present; also recorded: led to the formation of fibrils
